# What was measured:
# [1] = target: T1, recombinant 11β-HSD1 enzyme (Homo sapiens (Human), UniProt P28845); test: 11β-HSD1 reductase activity (HTRF Cortisol Kit); format: biochemical; conditions: 266 nM cortisone, 333 μM NADPH, read-out: 11b-HSD1 reductase (HTRF) IC50
# Protocol: Determination of 11β-HSD1 Reductase Activity
# First, stock solutions of the compounds were prepared in DMSO at a concentration of […], of which serial dilutions were made in order to determine the efficacy curve.
# As for the recombinant 11β-HSD1 enzyme (Cayman Chemical, MI, USA; Item No. 10007815), it was prepared in Tris Buffer 20 mM EDTA 5 mM pH 6.0 (Tris buffer) at different dilutions.
# Initially, the enzyme concentration to be used in the assays in order to evaluate the biological activity of the compounds was determined. The Cortisol Kit product (Cisbio, MA, USA; Cat no. 62CRTPEG) was used for that purpose.
# The protocol consisted of preparing the reaction buffer, adding 266 nM cortisone and 333 μM NADPH in Tris buffer. Then, this reaction buffer is added to the wells of the HTRF (Homogeneous Time Resolved Fluorescence) reaction plate together with the enzyme in a 4:1 ratio respectively, and incubated for 2 hours at 37° C. In the case of the control wells, two wells with Tris buffer were added, without compounds.
# After the incubation time, the reagents of the Cortisol kit were added, Cortisol d2 and Cortisol cryptate in sample ratio, Cortisol d2 and cortisol cryptate 2:1:1, in a quantity according to the size of the well as indicated by the supplier (for the negative control of the kit, the cortisol d2 is replaced by the kit's reconstitution buffer). This reaction is incubated for 1 hour at room temperature in order to later read the fluorescence at 665 and 620 nm.
# Once the enzyme concentration to be used has been determined, the cortisol kit protocol is continued to determine the efficacy curve for the compounds. As previously done, a plate for HTRF was prepared adding to each well of the reaction buffer, the recombinant 11β-HSD1 enzyme and the compounds to be assayed in a 3:1:1 ratio, respectively. The plate was subsequently incubated at 37° C. for 2 hours.
# After the incubation time, the reagents of the cortisol kit, cortisol d2 and cortisol cryptate, are added, and were incubated again for 1 hour at room temperature. Finally, the fluorescence of each well was determined at 665 and 620 nm.
# [2] = In vivo pharmacokinetics in mice, IV and oral; set-up: species or system male C57BL/6J mice
# Protocol: The animals were classified according to weight and divided into the following groups (Table 7):
# 20% Kolliphor and 50% PBS at a concentration of 1 mg/mL. From this solution, a 0.4 mg/mL dilution was made for IV administration.
# In intravenous (IV) administration, after each compound was administered to the mice, the mice were separated into groups of 3 and were euthanized at times 5, 10, 15, 30, 60, 120, 240, 260, 480 and 1440 minutes. For oral administration (V.O), the mice were separated into groups of 3 and were euthanized at times 15, 30, 60, 120, 240, 260, 480 and 1440 minutes. To obtain zero-time assays, mice were used to which no compound was administered.
# Whole blood was obtained from each animal (in microtubes with EDTA); these samples were centrifuged at 9000 g at a temperature of 4° C. for a period of 5 minutes, obtaining the plasma which was stored at −80° C.
# In addition, organs such as brain, liver, muscle, epididymal fat, heart and kidney were obtained from the animals, which were frozen in liquid nitrogen and stored at −80° C.
# Plasma samples and brain, liver, epididymal fat, and muscle (tissue) samples were analyzed. 2× in volume of water (weight/volume) was added to the tissue samples while 4× in volume of water (weight/volume) was added to the muscle mixture, after which they were homogenized using a Bullet Blender equipment (Next Advance, USA).
# All samples were analyzed as a single point by LC-MS/MS in accordance with the analytical methodology already standardized and presented in application example 3.
# To begin, a calibration curve was run. For this purpose, the controls, the plasma and organ samples were prepared by adding 180 μL of cold acetonitrile to these, then vortexed for 15 seconds and centrifuged at 6100 g for 30 seconds at 4° C. The supernatant which was obtained from this procedure was diluted in 2 volumes of 0.2% formic acid in water and transferred to a vial that will allow it to be injected into LC-MS/MS.
# The conditions for the LC-MS/MS analysis were: • HPLC: Eksigent UltraLC 100 • Autosampler: Eksigent UltraLC 100-XL at RT • Mobile phase: A-0.1% formic acid in water; B-0.1% formic acid in acetonitrile. • Column: YMC Triart 1.9 μm; 2.0×50 mm • Injection volume: 2 μL • Gradient: 5% B for 0.25 min→5-95% B for 0.75 min→95% B for 2 min→95-5% B for 0.25 min→5% B for 0.25 min • Flow: 0.6 mL/min • Mass Spectrometer: Applied Biosystems/SCIEX QTRAP 4500 • Interface: TurbolonSpray (ESI) at 600° C. • Software: Analyst.
# [3] = target: T1, recombinant 11β-HSD1 enzyme; test: 11β-HSD1 oxidase activity (HTRF Cortisol Kit); format: biochemical
# Protocol: Determination of 11β-HSD1 Oxidase Activity
# The Cortisol Kit (Cisbio) product was used for that purpose.
# For the analysis, the compounds are reconstituted in DMSO in a stock of 10 mM concentration, from which serial dilutions were prepared for the efficiency curve.
# The recombinant 11β-HSD1 enzyme dilutions were prepared in 20 mM Tris Buffer 5 mM EDTA pH 6.0 (Tris buffer).
# Initially, the enzyme concentration to be used was determined. For this purpose, a plate for HRTF was prepared with Tris buffer with 100 nM cortisol and 200 μM NADP+, including in the wells of the plate for HTRF together with the enzyme in a 4:1 ratio, respectively, and incubated for 2 hours at 37° C. After this time, the reagents of the Cortisol kit, Cortisol d2 and Cortisol cryptate in sample ratio, Cortisol d2 and cortisol cryptate 2:1:1 were added, incubating this new reaction for 1 hour at room temperature. Subsequently, the fluorescence was determined at 665 and 620 nm.
# An HRTF plate was again prepared, where the reaction buffer, the recombinant 11β-HSD1 enzyme and the compound were added in each well in a 3:1:1 ratio, respectively. The plate was incubated at 37° C. for 2 hours. After the incubation time, the reagents of the cortisol kit, cortisol d2 and cortisol cryptate, were added as indicated above. They were then incubated at room temperature for 1 hour to finally read the fluorescence at 665 and 620 nm.
# [4] = test system: Madin-Darby Canine Kidney (MDCK) cells transfected with human P-glycoprotein (hMDR1); conditions: MDCK-MDR1
# Protocol: Madin-Darby Canine Kidney (MDCK) cells were used in this assay, which are stably transfected with the gene encoding human P-glycoprotein (hMDR1). These cells were cultured in DMEM medium (Dulbecco's Modified Eagle's Medium) high in glucose and supplemented with 10% fetal bovine serum, 1% 5 mM pyruvate, 1% non-essential amino acids solution X5, 20,000 IU/mL of penicillin G and 20,000 IU/mL of streptomycin, a temperature of 37° C., 90% relative humidity and 5% CO2. These cells were seeded in sterile plates on the fourth day of growth or until reaching 90% confluence.
# Ten days before carrying out the transport analysis, cells were seeded in Transwells® inserts (1.12 cm2) at a density of 60,000 cells/cm^2. The monolayers were supplemented every two days with fresh culture medium. […] In parallel, B-A experiments were performed (1.5 mL of donor solution in basolateral compartment and 0.5 mL buffer in apical). The monolayers were incubated while stirring (50 rpm) at a temperature of 37° C. for a period of 2 hours. Additionally, this assay was performed in the presence of the Pgp inhibitor elacridar (5 μM). After the stir time, the inserts were removed, the compartments were sampled and the cells were transferred to HPLC vials by diluting these samples with mobile phase chromatography. These samples were kept at −20° C. until their analysis time. […]
# T1 sequence (P28845 whole entry): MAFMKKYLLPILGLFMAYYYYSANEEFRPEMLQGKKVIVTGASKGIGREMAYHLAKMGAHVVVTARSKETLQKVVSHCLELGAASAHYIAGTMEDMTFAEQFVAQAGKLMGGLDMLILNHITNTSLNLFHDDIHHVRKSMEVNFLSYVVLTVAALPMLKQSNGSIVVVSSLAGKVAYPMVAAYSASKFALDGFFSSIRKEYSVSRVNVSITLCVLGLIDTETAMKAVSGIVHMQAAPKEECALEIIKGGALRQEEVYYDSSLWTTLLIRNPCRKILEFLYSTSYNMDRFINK
substance,measurement,setting,value
"1-(3-pyridyl)-2-(3-adamantyl-1,2,4-oxadiazol-5-yl)ethane [BD-44]",IC50,[1],3.9 nM
same,AUCExtr,"[2]; IV, 2 mg/Kg, plasma",0.672%
same,AUCInf,"[2]; IV, 2 mg/Kg, plasma",369 ng·h/mL
same,AUCfinal,"[2]; IV, 2 mg/Kg, plasma",368 ng·h/mL
same,CL,"[2]; IV, 2 mg/Kg, plasma",90.3 mL/min/kg
same,Vz,"[2]; IV, 2 mg/Kg, plasma",7.95 L/kg
same,t1/2,"[2]; IV, 2 mg/Kg, plasma",1.02 h
same,AUCExtr,"[2]; PO, 10 mg/Kg, plasma",1.39%
same,AUCInf,"[2]; PO, 10 mg/Kg, plasma",148 ng·h/mL
same,AUCfinal,"[2]; PO, 10 mg/Kg, plasma",146 ng·h/mL
same,CL,"[2]; PO, 10 mg/Kg, plasma",1120 mL/min/kg
same,F,"[2]; PO, 10 mg/Kg, plasma",8.00%
same,Vz,"[2]; PO, 10 mg/Kg, plasma",102 L/kg
same,t1/2,"[2]; PO, 10 mg/Kg, plasma",1.05 h
same,tmax,"[2]; PO, 10 mg/Kg, plasma",0.5 h
same,mean time (of elimination) of the drug,"[2]; administered intravenously, plasma",1.02 h
same,mean time (of elimination) of the drug,"[2]; administered orally, plasma",1.05 h
same,time post administration up to which compound was detected,"[2]; both intravenously and orally, plasma",up to 6 hours
same,"detection in tissues (brain, liver, fat, muscle)",[2]; oral and intravenous administration,not detected in the tissues assayed
same,bioavailability / apparent availability,[2]; plasma,low apparent availability
same,11b-HSD1 oxidase (activ rem %) 100 nM,[3]; remaining activity at 100 nM compound,107.0%
same,11b-HSD1 oxidase (activ rem %) 100 uM,[3]; remaining activity at 100 uM compound,94.3%
same,Papp compared with high permeability marker minoxidil,[4],higher than those of the high permeability marker minoxidil

# — patent publication US12304894B2, “Derivatives of adamantyl oxadiazoles and pharmaceutically acceptable solvates, hydrates and salts thereof, pharmaceutical composition comprising same, synthesis method, suitable for use as effective and selective inhibitors of the reductase activity of the enzyme 11-beta dehydrogenase type 1 …” (PONTIFICIA UNIVERSIDAD CATOLICA DE CHILE, priority 2019, dated 2025)
